Laboratory results as given in patent publication US10351522B2, “Sulfonamide derivative and pharmaceutically acceptable acid addition salt thereof” (UNIVERSITY OF TSUKUBA, priority 2015, dated 2019).
Read-outs that look alike come from different tables or passages of the source.

Key:
human OX1R = molecular target: T1, human OX1R (Homo sapiens, UniProt O43613); test: Agonist activity against OX1R: intracellular calcium (Fura-2AM, FDSS7000) in CHOOX1R cells; type: cell-based; details: for Emax at 0.1 µM / Emax at 1 µM / Emax at 10 µM: read-out: Response (%) OX1R
T1 construct: expressed in transfected cells; host or cells: CHO (Chinese hamster ovary) cells, line CHOOX1R, co-expressing NFAT-luciferase
T1 sequence (O43613 1-425): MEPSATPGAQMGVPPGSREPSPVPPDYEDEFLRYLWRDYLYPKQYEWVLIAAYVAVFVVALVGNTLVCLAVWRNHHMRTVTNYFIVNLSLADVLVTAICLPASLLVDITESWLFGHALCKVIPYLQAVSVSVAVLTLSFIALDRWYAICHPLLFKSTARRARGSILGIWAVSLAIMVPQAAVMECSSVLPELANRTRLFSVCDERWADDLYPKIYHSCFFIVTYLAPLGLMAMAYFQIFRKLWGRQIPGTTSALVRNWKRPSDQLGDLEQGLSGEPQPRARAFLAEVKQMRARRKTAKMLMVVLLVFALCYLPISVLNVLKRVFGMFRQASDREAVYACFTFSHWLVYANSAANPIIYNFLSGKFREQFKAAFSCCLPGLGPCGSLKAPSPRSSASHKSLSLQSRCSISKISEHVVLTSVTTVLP
In short: (§1)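 CHO cells stably expressing human OX1R or OX2R (plus NFAT-luciferase) were loaded with 5 μM Fura-2AM for 60 min, then given compound at 10^−7 to 10^−5 M final (1% DMSO). Calcium change read as 340/380 nm excitation fluorescence ratio; response expressed as % of orexin-A maximal activity at 10, 1.0 and 0.1 μM.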

human OX2R = molecular target: T2, human OX2R (Homo sapiens, UniProt O43614); test: Agonist activity against OX2R: intracellular calcium (Fura-2AM, FDSS7000) in CHOOX2R cells; type: cell-based; details: relative to orexin-A as full agonist (100%)
T2 construct: expressed in transfected cells; host or cells: CHO (Chinese hamster ovary) cells, line CHOOX2R, co-expressing NFAT-luciferase
T2 sequence (O43614 1-444): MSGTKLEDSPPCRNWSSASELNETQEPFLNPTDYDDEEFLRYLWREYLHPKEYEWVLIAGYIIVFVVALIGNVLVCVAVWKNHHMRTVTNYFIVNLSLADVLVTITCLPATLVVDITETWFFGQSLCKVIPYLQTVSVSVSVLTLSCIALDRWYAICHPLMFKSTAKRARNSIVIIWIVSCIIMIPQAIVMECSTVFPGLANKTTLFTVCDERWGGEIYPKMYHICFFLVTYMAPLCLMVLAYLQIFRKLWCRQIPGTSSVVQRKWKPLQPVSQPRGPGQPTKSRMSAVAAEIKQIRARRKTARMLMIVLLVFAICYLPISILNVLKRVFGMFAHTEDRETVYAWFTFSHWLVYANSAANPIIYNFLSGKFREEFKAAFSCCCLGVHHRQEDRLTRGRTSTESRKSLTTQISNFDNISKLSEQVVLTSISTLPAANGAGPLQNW
In short: as §1

[1] = 0.1 μM test compound, relative to orexin-A as full agonist (100%)
[2] = 1.0 μM test compound, relative to orexin-A as full agonist (100%)
[3] = 10 μM test compound, relative to orexin-A as full agonist (100%)
[4] = test compound 0.1 μM, relative to orexin-A as full agonist (100%)
[5] = test compound 1.0 μM, relative to orexin-A as full agonist (100%)
[6] = test compound 10 μM, relative to orexin-A as full agonist (100%)

Row | SMILES | Response (%) OX1R (human OX1R; [1]) | Response (%) OX1R (human OX1R; [2]) | Response (%) OX1R (human OX1R; [3]) | Response (%) OX2R (human OX2R; 0.1 μM test compound) | Response (%) OX2R (human OX2R; 1.0 μM test compound) | Response (%) OX2R (human OX2R; 10 μM test compound) | Response (%) OX2R (human OX2R; test compound 0.1 μM) | Response (%) OX2R (human OX2R; test compound 1.0 μM) | Response (%) OX2R (human OX2R; test compound 10 μM) | other results
1 | COc1cccc(NC(=O)Nc2cccc(NS(=O)(=O)c3cc(-c4cccc(C(=O)N(C)C)c4)ccc3OC)c2)c1 [Example 44] | <5% | <5% | 10% | 100% | 104% | 95% | – | – | – | –
2 | CCN(Cc1cccnc1)C(=O)c1ccc(OC)c(S(=O)(=O)Nc2cccc(NC(=O)Nc3ccccc3N(C)C)c2)c1 [Example 113] | – | – | – | – | – | – | <5% | 6% | 73% | Response (%) OX1R (human OX1R; [4]): <5%; Response (%) OX1R (human OX1R; [5]): <5%; Response (%) OX1R (human OX1R; [6]): <5%
3 | COc1cccc(Nc2cccc(NS(=O)(=O)c3cc(-c4cccc(C(=O)N(C)C)c4)ccc3OC)c2)c1 [Example 32] | <5% | <5% | 14% | 13% | 79% | 88% | – | – | – | –
4 | COc1ccc(C(=O)NCCCNC(=O)OC(C)(C)C)cc1S(=O)(=O)Nc1cccc(NC(=O)Nc2cccc(N(C)C)c2)c1 [Example 104] | – | – | – | – | – | – | 7% | 79% | 99% | Response (%) OX1R (human OX1R; [4]): 7%; Response (%) OX1R (human OX1R; [5]): 6%; Response (%) OX1R (human OX1R; [6]): 7%
5 | CCOc1ccc(-c2cccc(C(=O)N(C)C)c2)cc1S(=O)(=O)Nc1cccc(NC(=O)Nc2cccc(N(C)C)c2)c1 [Example 119, 3′-(N-(3-(3-(3-(dimethylamino)phenyl)ureido)phenyl)sulfamoyl)-4′-ethoxy-N,N-dimethyl-[1,1′-biphenyl]-3-carboxamide] | – | – | – | – | – | – | 49% | 85% | 98% | Emax at 0.1 µM (human OX1R; [4]): < 5%; Emax at 1 µM (human OX1R; [5]): < 5%; Emax at 10 µM (human OX1R; [6]): < 5%
6 | COc1ccc(-c2cccc(C(=O)N(C)C)c2)cc1S(=O)(=O)Nc1cccc(NC(=O)N(C)c2cccc(N(C)C)c2)c1 [Example 127, 3′-(N-(3-(3-(3-(dimethylamino)phenyl)-3-methylureido)phenyl)sulfamoyl)-4′-methoxy-N,N-dimethyl-[1,1′-biphenyl]-3-carboxamide] | – | – | – | – | – | – | 106% | 90% | 73% | Emax at 0.1 µM (human OX1R): < 5%; Emax at 1 µM (human OX1R): 7%; Emax at 10 µM (human OX1R): 56%
7 | COc1ccc(-c2cccc(C(=O)N(C)C)c2)cc1S(=O)(=O)Nc1cccc(NCc2cccc(C)c2)c1 [Example 25] | <5% | <5% | 32% | 21% | 88% | 97% | – | – | – | –
8 | COc1ccc(Nc2c(Nc3cccc(NS(=O)(=O)c4cc(-c5cccc(C(=O)N(C)C)c5)ccc4OC)c3)c(=O)c2=O)cc1 [Example 81] | – | – | – | – | – | – | <5% | <5% | 27% | Response (%) OX1R (human OX1R; [4]): <5%; Response (%) OX1R (human OX1R; [5]): <5%; Response (%) OX1R (human OX1R; [6]): 7%
9 | COc1ccc(-c2cccc(C(=O)N(C)C)c2)cc1S(=O)(=O)Nc1cccc(NC(=O)Nc2ccccn2)c1 [Example 68] | 6% | 6% | 6% | 10% | 10% | 57% | – | – | – | –
10 | COc1ccc(-c2cccc(C(=O)N(C)C)c2)cc1S(=O)(=O)Nc1cccc(NC(=O)Nc2cccc(Br)c2)c1 [Example 50] | <5% | <5% | <5% | 100% | 94% | 97% | – | – | – | –
11 | COc1ccc(-c2cccc(C(=O)N(C)C)c2)cc1S(=O)(=O)Nc1cccc(NC(=O)Nc2cccc(N)c2)c1 [Example 63] | 9% | 9% | 7% | 8% | 55% | 66% | – | – | – | –
12 | COc1ccc(-c2cccc(C(=O)N(C)C)c2)cc1S(=O)(=O)Nc1cccc(/N=N/c2ccc(N(C)C)cc2CO)c1 [Example 97, (E)-3′-(N-(3-((4-(dimethylamino)-2-(hydroxymethyl)phenyl)diazenyl)phenyl)sulfamoyl)-4′-methoxy-N,N-dimethyl-[1,1-biphenyl]-3-carboxamide] | – | – | – | – | – | – | 25% | 84% | 108% | Emax at 0.1 µM (human OX1R; [4]): < 5%; Emax at 1 µM (human OX1R; [5]): < 5%; Emax at 10 µM (human OX1R; [6]): 11%

The next lines start with results.

Row | Response (%) OX1R (human OX1R; [1]) | Response (%) OX1R (human OX1R; [2]) | Response (%) OX1R (human OX1R; [3]) | Response (%) OX2R (human OX2R; 0.1 μM test compound) | Response (%) OX2R (human OX2R; 1.0 μM test compound) | Response (%) OX2R (human OX2R; 10 μM test compound) | Response (%) OX2R (human OX2R; test compound 0.1 μM) | Response (%) OX2R (human OX2R; test compound 1.0 μM) | Response (%) OX2R (human OX2R; test compound 10 μM) | SMILES | other results
13 | 6% | 8% | 9% | 15% | 83% | 103% | – | – | – | COc1ccc(-c2cccc(C(=O)N(C)C)c2)cc1S(=O)(=O)Nc1cccc(NC(=O)Nc2cccs2)c1 [Example 67] | –
14 | – | – | – | – | – | – | <5% | <5% | 46% | C=CC(=O)NCCN(C(=O)C=C)c1cccc(NS(=O)(=O)c2cc(-c3cccc(C(=O)N(C)C)c3)ccc2OC)c1 [Example 94, 3′-(N-(3-(N-(2-acrylamidoethyl)acrylamido)phenyl)sulfamoyl)-4′-methoxy-N,N-dimethyl-[1,1′-biphenyl]-3-carboxamide] | Emax at 0.1 µM (human OX1R; [4]): < 5%; Emax at 1 µM (human OX1R; [5]): < 5%; Emax at 10 µM (human OX1R; [6]): < 5%
15 | – | – | – | – | – | – | <5% | <5% | 12% | COc1cccc(S(=O)(=O)Nc2cccc(NS(=O)(=O)c3cc(-c4cccc(C(=O)N(C)C)c4)ccc3OC)c2)c1 [Example 85, 4′-methoxy-3′-(N-(3-(3-methoxyphenylsulfonamido)phenyl)sulfamoyl)-N,N-dimethyl-[1,1′-biphenyl]-3-carboxamide] | Emax at 0.1 µM (human OX1R; [4]): < 5%; Emax at 1 µM (human OX1R; [5]): < 5%; Emax at 10 µM (human OX1R; [6]): < 5%
16 | – | – | – | – | – | – | 4% | 27% | 84% | COc1ccc(C(=O)NCc2cccnc2)cc1S(=O)(=O)Nc1cccc(NC(=O)Nc2cccc(N(C)C)c2)c1 [Example 103] | Response (%) OX1R (human OX1R; [4]): <5%; Response (%) OX1R (human OX1R; [5]): <5%; Response (%) OX1R (human OX1R; [6]): <5%
17 | 6% | 7% | 7% | 15% | 13% | 64% | – | – | – | COc1ccc(-c2cccc(C(=O)N(C)C)c2)cc1S(=O)(=O)Nc1cccc(NC(=O)OC(C)(C)C)c1 [Example 74] | –
18 | – | – | – | – | – | – | <5% | 26% | 69% | COc1ccc(C(=O)NCCCNC(=O)OC(C)(C)C)cc1S(=O)(=O)Nc1cccc(NC(=O)Nc2ccccc2N(C)C)c1 [Example 112, tert-butyl (3-(3-(N-(3-(3-(2-(dimethylamino)phenyl)ureido)phenyl)sulfamoyl)-4-methoxybenzamido)propyl)carbamate] | Emax at 0.1 µM (human OX1R; [4]): < 5%; Emax at 1 µM (human OX1R; [5]): < 5%; Emax at 10 µM (human OX1R; [6]): < 5%
19 | <5% | 63% | 107% | 11% | 117% | 109% | – | – | – | COc1ccc(-c2cccc(C(=O)N(C)C)c2)cc1S(=O)(=O)Nc1cccc(NC(=O)C[S+]([O-])C(c2ccccc2)c2ccccc2)c1 (stereo not drawn) [Example 13] | –
20 | – | – | – | – | – | – | 61% | 97% | 100% | CCN(Cc1cccnc1)C(=O)c1ccc(OC)c(S(=O)(=O)Nc2cccc(NC(=O)Nc3cccc(N(C)C)c3)c2)c1 [Example 102] | Response (%) OX1R (human OX1R; [4]): <5%; Response (%) OX1R (human OX1R; [5]): <5%; Response (%) OX1R (human OX1R; [6]): <5%
21 | <8% | 6% | 26% | 98% | 95% | 100% | – | – | – | COc1ccc(NC(=O)Nc2cccc(NS(=O)(=O)c3cc(-c4cccc(C(=O)N(C)C)c4)ccc3OC)c2)cc1 [Example 53] | –
